± gives the expanded uncertainty stated by the source.
assay: refractive index (Na D-line) (dimensionless); details: 298.15 K; 100 kPa; Liquid; Standard Abbe refractometry

| Structure (SMILES) | refractive index |
| --- | --- |
| CC(=O)OCCC(C)C [3-methylbutyl ethanoate] | 1.39852 ± 0.00037 |
| OCc1ccccc1 [benzenemethanol] | 1.53876 ± 0.00037 |
| C[S+](C)[O-] [dimethyl sulfoxide] | 1.47713 ± 0.00033 |

Reference: the NIST ThermoML archive (doi:10.1021/acs.jced.9b00396)
